Reference: PMC5252617 (Pharmaceutical research, 2012)
Like-named read-outs stand apart in the source and are kept apart here.

Molecular target: T1, human apical sodium-dependent bile acid transporter (hASBT) (Homo sapiens, UniProt Q12908)
T1 sequence (Q12908 1-348): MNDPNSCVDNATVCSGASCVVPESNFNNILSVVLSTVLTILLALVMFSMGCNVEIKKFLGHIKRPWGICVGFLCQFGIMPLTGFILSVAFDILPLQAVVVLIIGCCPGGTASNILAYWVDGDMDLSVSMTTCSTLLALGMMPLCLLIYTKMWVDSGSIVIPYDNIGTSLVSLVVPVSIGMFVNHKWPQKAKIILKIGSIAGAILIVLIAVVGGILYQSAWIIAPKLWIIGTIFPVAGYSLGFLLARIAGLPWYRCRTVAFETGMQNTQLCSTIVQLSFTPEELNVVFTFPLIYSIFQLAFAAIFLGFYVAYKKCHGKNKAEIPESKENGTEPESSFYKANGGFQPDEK
Test: time-dependent inactivation of [3H]-TCA uptake after pre-incubation, hASBT-MDCK
Format: cell-based

| SMILES | KI (inactivation) (read-out: 3β-Cl-CDCA) | KI (inactivation) (read-out: 7α-Ms-CDCA) |
| --- | --- | --- |
| C[C@H](CCC(=O)O)[C@H]1CC[C@H]2[C@@H]3[C@H](O)C[C@@H]4C[C@@H](Cl)CC[C@]4(C)[C@H]3CC[C@]12C [3β-Cl-CDCA, 3β-chloro-7α-hydroxy-5β-cholan-24-oic acid] | 810 ± 190 nM | – |
| C[C@H](CCC(=O)O)[C@H]1CC[C@H]2[C@@H]3[C@H](OS(C)(=O)=O)C[C@@H]4C[C@H](O)CC[C@]4(C)[C@H]3CC[C@]12C [7α-Ms-CDCA, 3α-hydroxy-7α-mesyloxy-5β-cholan-24-oic acid] | – | 1190 ± 60 nM |
